The results in this text go back to US3995047A, “Propiophenone derivatives in the treatment of pathological muscular conditions” (Eisai Co., Ltd., priority 1973, dated 1976).

Bounds are passed on as bounds.

One data set concerns mice. Description: Acute toxicity: mortality during 24 hours after oral administration. The class given is in vivo. The note with it: 24 hours. On the procedure: (§1) Male d,d-strain mice weighing 18 to 22 grs. were used for the experiments.
(§2) Groups of each 10 mice were treated orally and intraperitoneally with a wide range of doses of the above-mentioned compounds or saline.
(§3) The mortality ensued during 24 hours after the oral administration was recorded to determine acute toxicity of the compound under test on the mice.

Assay in data set [1]: as above
The data set is classed as in vivo. The settings on record: mouse, in vivo, mice, mortality during 24 hours. The method, then: as §1, §2, §3

The subject of data set [2] is isolated smooth muscle preparations (acetylcholine). Description: Anti-acetylcholine activity on isolated smooth muscle preparations. The note with it: A at 4 × 10^-6, B at 10^-6, C at 4 × 10^-7 g/ml. The text has this:
(§4) Additionally, anti-histamine, anti-acetylcholine, antiserotonin and smooth muscle-relaxing activities of the compounds under test were examined on isolated smooth muscle preparations.

The test system of data set [3] is isolated smooth muscle preparations (histamine). Description: Anti-histamine activity on isolated smooth muscle preparations. The settings on record: A at 4 × 10^-6, B at 10^-6, C at 4 × 10^-7 g/ml.
Excerpt: as §4

Another data set deals with tremorine-induced tremor. Description: Anti-tremorine activity: antagonism of tremorine-induced tremor. The class given is in vivo, male d,d-strain mice. The settings on record: Mus musculus, mice. On the procedure: as §1, §2
1) Anti-tremorine activity:
Antagonistic effects on the tremorine-induced tremor were observed as follows:
Ten (10) minutes after the intraperitoneal injection of the individual compounds under test, on one hand, and 40 minutes after the oral administration of said individual compounds, on the other hand, 20 mg/kg of tremorine hydrochloride were subcutaneously injected to each group of the mice. The occurrence of tremor on the individually caged mice was visually observed 20 minutes after the tremorineinjection.

The test system of data set [4] is physostigmine-induced convulsive death. Briefly: Anti-physostigmine activity: antagonism of convulsive death caused by physostigmine. The data set is classed as in vivo, male d,d-strain mice. The settings on record: Mus musculus, 1 h; oral, mice, 60 minutes after administration; footnote 1) for control: no effect up to the dose. On the procedure:
as §1, §2
(§5) 2) Anti-nicotine and anti-physostigmine activities:
(§6) Antagonistic effects against the convulsive death of the mice caused by the injections of nicotine, on one hand, and physostigmine, on the other hand, were observed as follows:
(§7) Thirty (30) minutes after the intraperitoneal injection of the individual compounds under test, on one hand, and 60 minutes after the oral administration of said individual compounds, on the other hand, 4 mg/kg of nicotine tartrate, on one hand, and 0.5 mg/kg of physostigmine sulfate, on the other hand, were intravenously injected to each group of the mice. The convulsive death, if any, of the mice in each group was then observed.

Data set [5] concerns isolated smooth muscle preparations. Description: Smooth muscle-relaxing activity on isolated smooth muscle preparations. The settings on record: for smooth muscle-relaxant activity (in words): A at 4 × 10^-6, B at 10^-6, C at 4 × 10^-7 g/ml, concentration for control not stated.
Excerpt: as §4

In data set [6] the test system is nicotine-induced convulsive death. Description: Anti-nicotine activity: antagonism of convulsive death caused by nicotine. The data set is classed as in vivo, male d,d-strain mice. The note with it: Mus musculus, mice. The method, then: as §1, §2, §5, §6, §7
Another data set can be described thus: in vivo. On the set-up: species or system male d,d-strain mice. The note with it: mouse, po. On the procedure: as §1, §2
The mark [7] stands for this setting: 1 h, oral, 60 minutes after administration.
[8] abbreviates: ip, 0.5 h, intraperitoneal, 30 minutes after injection.

By LD50 is commonly meant the dose expected to kill half of the subjects tested. As a reminder, the ED50 is the dose at which the effect has come halfway, by size or by number of responders. The low end stands for an effect at a small dose, the high end for a need for a large dose. As for `CCc1ccc(C(=O)C(C)CN2CCCCC2)cc1.Cl` (centres unmarked) [Compound A, 4'-ethyl-2-methyl-3-piperidino-propiophenone hydrochloride], the “acute toxicity compared with Compound under control (in words)” value in the data set on mice was “slighly stronger”. The median lethal dose (LD50) at 24 h in data set [1] lay within 800 to 1000 mg/kg. In addition, the “anti-acetylcholine activity (in words)” value in data set [2] is on record as “do not entirely produce”. In addition, the “anti-histamine activity (in words)” value in data set [3] is “do not entirely produce”. Also, the ED50 with tremorine-induced tremor (setting [7]) came to 32 mg/kg; in the data set on tremorine-induced tremor (setting [8]), 23 mg/kg; in [4], 84 mg/kg; in data set [6] (setting [7]) it was 175 mg/kg; in data set [6] (setting [8]) it was 21 mg/kg. Further, the “smooth muscle-relaxant activity (in words)” value in data set [5] is reported as “strong smooth muscle-relaxant activities”. The TD50 at 1 h in “in vivo” was determined as 640 mg/kg.

For the compound `CC(CN1CCCCC1)C(=O)c1ccc(C(C)C)cc1.Cl` (centres unmarked) [Compound C, 4'-isopropyl-2-methyl-3-piperidino-propiophenone hydrochloride], the LD50 at 24 h in [1] was in the range of 400 to 500 mg/kg. Besides, in [2], the “anti-acetylcholine activity (in words)” value was “do not entirely produce”. Moreover, in data set [3], the “anti-histamine activity (in words)” value is “do not entirely produce”. In addition, the ED50 worked out at 118 mg/kg in the data set on tremorine-induced tremor (setting [7]); 25 mg/kg in the data set with tremorine-induced tremor (setting [8]); 50 mg/kg in [4]; 37 mg/kg in [6] (setting [7]); 10 mg/kg in data set [6] (setting [8]). For the same compound, the “smooth muscle-relaxant activity (in words)” value in data set [5] was “strong smooth muscle-relaxant activities”. The compound also gave a TD50 at 1 h in “in vivo” of 84 mg/kg.

As to `Cc1ccc(C(=O)C(C)CN2CCCCC2)cc1.Cl` (centres unmarked) [Compound for Control, 2,4'-dimethyl-3-piperidino-propiophenone hydrochloride, reference compound], in data set [1], the LD50 at 24 h was in the range of 1000 to 1500 mg/kg. Besides, the 50% effective dose (ED50) was 210 mg/kg with tremorine-induced tremor (setting [7]); 80 mg/kg in the data set with tremorine-induced tremor (setting [8]); greater than 400 mg/kg in data set [4]; 450 mg/kg in data set [6] (setting [7]); 35 mg/kg in data set [6] (setting [8]). The “smooth muscle-relaxant activity (in words)” value in [5] was “weak smooth muscle-relaxant activity”. Further, the “smooth muscle-relaxant potency relative to papaverine” value in data set [5] (Compound under control vs papaverine) was “about 1/3”. For the same compound, the TD50 at 1 h in “in vivo” turned out to be 800 mg/kg.

On to `CCCc1ccc(C(=O)C(C)CN2CCCCC2)cc1.Cl` (centres unmarked) [Compound B, 4'-n-propyl-2-methyl-3-piperidino-propiophenone hydrochloride], for which the “acute toxicity compared with Compound under control (in words)” value in the data set on mice was “almost equivalent to that of Compound under control”. The compound further registered an LD50 at 24 h in data set [1] of 1000 to 1500 mg/kg. The “anti-acetylcholine activity (in words)” value in data set [2] is recorded as “do not entirely produce”. In addition, in [3], the “anti-histamine activity (in words)” value is “do not entirely produce”. For the same compound, the ED50 with tremorine-induced tremor (setting [7]) is 50 mg/kg; with tremorine-induced tremor (setting [8]) it was 21 mg/kg; in [4], 150 mg/kg; in [6] (setting [7]), 135 mg/kg; in data set [6] (setting [8]), 20 mg/kg. In addition, the “smooth muscle-relaxant activity (in words)” value in [5] is “strong smooth muscle-relaxant activities”. In “in vivo”, this compound showed a TD50 at 1 h of 800 mg/kg.
